Results: ChEMBL document CHEMBL3987221, “The Australian National University Dept Of Immunology Pathogen Box Compounds Screened” (2018)
The source made the active and inactive calls. No rule for the calls is given here.

Columns and labels:
[1] = target: T1, Porphobilinogen deaminase (Homo sapiens) (UniProt P08397); settings: at 100 µM
T1 sequence (whole entry): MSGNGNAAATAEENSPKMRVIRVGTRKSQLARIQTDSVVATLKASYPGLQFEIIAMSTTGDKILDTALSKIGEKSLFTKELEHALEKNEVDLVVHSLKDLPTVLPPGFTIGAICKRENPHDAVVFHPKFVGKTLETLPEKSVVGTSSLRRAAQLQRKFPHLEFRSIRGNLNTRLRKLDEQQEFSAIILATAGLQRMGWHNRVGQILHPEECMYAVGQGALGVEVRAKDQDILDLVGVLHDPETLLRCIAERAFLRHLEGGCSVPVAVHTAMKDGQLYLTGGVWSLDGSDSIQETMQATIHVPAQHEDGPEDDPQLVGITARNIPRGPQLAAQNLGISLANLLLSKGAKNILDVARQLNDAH
Description: Compound was evaluated for the inhibition of human HMBS at 100uM

[2] = target: T2, Ferrochelatase, mitochondrial (Homo sapiens) (UniProt P22830); settings: at 10 µM
T2 sequence (whole entry): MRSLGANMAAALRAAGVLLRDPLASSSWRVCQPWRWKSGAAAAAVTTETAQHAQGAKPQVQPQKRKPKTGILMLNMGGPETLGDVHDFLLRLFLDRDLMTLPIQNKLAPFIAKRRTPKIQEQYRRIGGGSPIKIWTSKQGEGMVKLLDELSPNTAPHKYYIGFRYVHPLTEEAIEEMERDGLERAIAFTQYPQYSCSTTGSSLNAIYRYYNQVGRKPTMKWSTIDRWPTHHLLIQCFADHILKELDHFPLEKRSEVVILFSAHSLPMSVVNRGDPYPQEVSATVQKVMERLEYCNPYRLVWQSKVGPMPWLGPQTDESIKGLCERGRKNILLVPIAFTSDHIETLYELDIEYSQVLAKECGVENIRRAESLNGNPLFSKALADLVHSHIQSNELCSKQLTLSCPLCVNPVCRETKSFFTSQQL
Description: Compound was evaluated for the inhibition of human FECH at 10uM

Structure (SMILES) | inhibition [1] | inhibition [2]
O=C(NC1CCCCC1)N1CCN(Cc2ccc3c(c2)OCO3)CC1 | inactive | inactive
CC(C)(C)OC(=O)N1CCC(Cn2nc(-c3cnc4ccccc4c3)c3c(N)ncnc32)CC1 | inactive | inactive
CCOC(=O)c1noc(N)c1-c1ccccc1 | inactive | inactive
Cc1nn(C)c(C)c1NS(=O)(=O)c1c(Cl)cc(-c2ccnc(N3CCNCC3)c2)cc1Cl | inactive | inactive
C[C@H](C(N)=O)N1CCCC[C@H]1c1ccc(OCc2cccc(F)c2)cc1 | inactive | inactive
N#Cc1ccc(-c2ccc(OCC(N)=O)cc2)cc1 | inactive | inactive
COc1ccc(N(CCc2cccc(C)n2)C(=O)C2CCCCC2)cc1 | inactive | inactive
CC1(C)OB(O)c2ccc(C3=NOC(c4cc(Cl)c(F)c(Cl)c4)(C(F)(F)F)C3)cc21 (centres undefined) | inactive | inactive
O=C(Nc1cccc(Cl)c1)c1cnc(N2CCN(c3ccncc3)CC2)c(Cl)c1 | inactive | inactive
COc1ccc(Nc2ccccc2NC(=O)c2ccc(O)nc2)cc1 | inactive | inactive
CC(C)C(Oc1cccc2ccccc12)C(=O)O (centres undefined) | inactive | inactive
COc1ccc2nc(C)cc(OCC(=O)NCc3ccccc3)c2c1 | inactive | inactive
COc1cc(-c2cc(-c3ccc(S(C)(=O)=O)cc3)cnc2N)ccc1O | inactive | inactive
CC(C)(C)c1cc(C(=O)N2CCN(c3nccnc3C#N)CC2)n(Cc2ccccc2)n1 | inactive | inactive
Cc1[nH]c2ccccc2c1C(c1cccs1)N1CCN(C)CC1 (centres undefined) | inactive | inactive
Cc1cc(Nc2ccncc2)n2nc(C)c(-c3ccccc3Cl)c2n1 | inactive | inactive
COC(=O)C1=C(C)NC(C)=C(C(=O)OC(C)C)C1c1cccc2nonc12 (centres undefined) | inactive | inactive
CCOc1ccc(-c2nc(NC(=O)CS(=O)(=O)c3ccccc3)sc2C)cc1 | inactive | inactive
O=C(Nc1ccccc1)c1ccc(-c2cc3ccncc3cc2OC2CCNCC2)s1 | inactive | inactive
C[C@@H]1[C@H](O)[C@@H](C)/C=C/C=C/C=C/C=C/C=C/C=C/C=C/[C@H](O[C@@H]2O[C@H](C)[C@@H](O)[C@H](N)[C@@H]2O)C[C@@H]2O[C@](O)(C[C@@H](O)C[C@@H](O)[C@H](O)CC[C@@H](O)C[C@@H](O)CC(=O)O[C@H]1C)C[C@H](O)[C@H]2C(=O)O | inactive | inactive
COc1ccc(OC)c(NCc2ccc3nc(N)nc(N)c3c2Cl)c1 | inactive | inactive
O=C(Nc1ccc2c(c1)B(O)OC2)c1ccccc1C(F)(F)F | inactive | inactive
CC(C)(C)CN1C(=O)C(c2ccccc2)(c2ccccc2)N=C1N | inactive | inactive
Cc1cc(C)c2cc(C(=O)NC3CCCCCCC3)[nH]c2c1 | inactive | inactive
c1ccc(Oc2ccc(-c3cncc(-c4ccc5[nH]ccc5c4)n3)cc2)cc1 | inactive | inactive
CN1CCN(CCCOc2ncc(Nc3ncc(-c4ccc(C(F)(F)F)c(F)c4)nc3C(N)=O)cn2)CC1 | inactive | inactive

Structure (SMILES) | inhibition [1] | inhibition [2]
COc1cc(NC(=O)Cc2nn(C)c(=O)c3ccccc23)ccc1Cl | inactive | inactive
CNC(=O)c1nn(C)c2c1C(C)(C)Cc1cnc(Nc3ccc(N4CCN(C)CC4)cc3)nc1-2 | inactive | inactive
N#Cc1ccc(-c2cnc(N)c(-c3ccc(C(N)=O)cc3)n2)cc1 | inactive | inactive
NCCN(C(=O)c1ccc(Cl)cc1Cl)c1ccc(OCc2ccc(Cl)cc2)cc1 | inactive | inactive
COc1ccc(CN2CCOc3ccc(C(C)(O)CN(C)C)cc3C2)cc1C (centres undefined) | inactive | inactive
CS(=O)(=O)c1ccc(C(=O)N(CC2CCCO2)c2nc3ccccc3s2)cc1[N+](=O)[O-] (centres undefined) | inactive | inactive
CCc1c(C)nc(-n2nc(C)cc2NC(=O)c2ccccc2SC)[nH]c1=O | inactive | inactive
O=C(Nc1nnc(-c2ccc(Cl)cc2)o1)c1cccc(C(F)(F)F)c1 | inactive | inactive
CO[C@@H](C(=O)N1Cc2[nH]nc(NC(=O)c3ccc(N4CCN(C)CC4)cc3)c2C1)c1ccccc1 | inactive | inactive
COc1ccccc1OCCCCn1c(C2CC2)nc2ccccc21 | inactive | inactive
COc1ccc(C2=NN(C3CCCCCC3)C(=O)[C@@H]3CC=CC[C@H]23)cc1OCCCCOc1ccc(-c2nnn[nH]2)cc1 | inactive | inactive
Clc1cccc(C(c2ccc(CN3CCNCC3)cc2)n2ccnc2)c1 (centres undefined) | inactive | inactive
O=C(C1CCN(c2cc(-n3cccc3)ncn2)CC1)N1CCc2ccccc2C1 | inactive | inactive
NS(=O)(=O)c1cncc(-c2ccc3nccc(-c4cn[nH]c4)c3n2)c1 | inactive | inactive
CNC(=O)c1cc(S(=O)(=O)N2CCN(c3ccccn3)CC2)cs1 | inactive | inactive
CCCc1ccc(S(=O)(=O)Nc2ccc(CN3CCN(CC4CC4)CC3)cc2)cc1 | inactive | inactive
NCC(c1cccs1)S(=O)(=O)c1ccccc1 (centres undefined) | inactive | inactive
O=C(c1cc2ccccc2o1)N1CCN(Cc2ccc3c(c2)OCO3)CC1 | inactive | inactive
COC(=O)c1cccc2oc(-c3cccc(OC)c3NC(=O)c3cc(-c4ccccc4)on3)nc12 | inactive | inactive
COc1cc(Br)cc2cc(C(=O)Nc3cccc(C(F)(F)F)c3)c(=O)oc12 | inactive | inactive
O=C(COc1cccc(F)c1)Nc1nc(-c2ccccn2)cs1 | inactive | inactive
Nc1ncnc2[nH]nc(Cc3cccc4ccccc34)c12 | inactive | inactive
O=C(CN1CCOCC1)Nc1ccc2ncnc(Nc3ccc(OCc4cccc(F)c4)c(Cl)c3)c2c1 | inactive | inactive
CC(C)(C)c1ccc(N[C@@H]2CCCC[C@H]2NC(=O)c2ccco2)cc1 | inactive | inactive
CCCCS(=O)(=O)Nc1ccc2cnn(C)c2c1 | inactive | inactive
CCCn1nnc(NC(=O)COc2ccc(C3CCCCC3)cc2)n1 | inactive | inactive
